Measured values taken from paper PMC4412288, “Crystal Structures of the Carboxyl cGMP Binding Domain of the Plasmodium falciparum cGMP-dependent Protein Kinase Reveal a Novel Capping Triad Crucial for Merozoite Egress” (PLoS Pathogens, 2015).

Target: T1, PfCNB-C (residues 275–428) (Plasmodium falciparum, UniProt Q8I719)
T1 construct: 275–428 for CNB-C; His-tag (pQTEV, TEV site) (N, cleaved yes); made in house; host or cells: E. coli TP2000 (delta-cya)
Test: FP binding measurements, isolated PfCNB-C domain
Excerpt: A manually designed construct consisting of PfPKG amino acids 1–853 with codons optimized for expression in E.coli was synthesized at Life Technologies. All PfPKG constructs were ligated into the His-tagged bacterial expression vector, pQTEV [28]. In designing the expression constructs of each CNB, we used the sequence of the cGMP selective CNB-B that we recently reported. The domain boundaries for the individual constructs are: residues 1–173 for CNB-A, 158–294 for CNB-B, 275–428 for CNB-C and 401–542 for CNB-D. All PfPKG proteins were expressed in TP2000 E. coli. The cells were grown at 37 °C to an OD600nm of 0.6, then induced with 0.5 mM IPTG, and grown for an additional 10 hours at 25 °C. Cells were harvested by centrifugation, then resuspended in 50 mM potassium phosphate (pH 7.5), 500 mM NaCl and 1 mM β-mercaptoethanol, and lysed using a cell disruptor (Constant Systems).
The direct fluorescence polarization (FP) assay was performed following the procedure from Moll et al. Measurements were performed in 150 mM NaCl, 20 mM MOPS plus 0.005% (w/v) CHAPS pH 7.0 using the Fusion a-FP microtiter plate reader at room temperature in a 384 well microtiterplate (Perkin Elmer, Optiplate, black). The protein concentration was varied while the concentration of 8-Fluo-cAMP/8-Fluo-cGMP (Biolog Life Science Institute (Bremen, Germany)) was fixed at 1–5 nM. […] The KD values were calculated from sigmoidal dose-response curves.
For competition FP experiments, the protein concentration and the concentration of 8-Fluo-cGMP were fixed to give a polarization signal that was 50% of the maximum value obtained from direct FP measurements. […] FP signals were detected as indicated above. Data were analyzed with GraphPad Prism 5.03 by plotting the polarization signal in mPol against the logarithm of the cyclic nucleotide concentration. The EC50 values were calculated from sigmoidal dose-response curves.

T1 sequence (Q8I719 275-428): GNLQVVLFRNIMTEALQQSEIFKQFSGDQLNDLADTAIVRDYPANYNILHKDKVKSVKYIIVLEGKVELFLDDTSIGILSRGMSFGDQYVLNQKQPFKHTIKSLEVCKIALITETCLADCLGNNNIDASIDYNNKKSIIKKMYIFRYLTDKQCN

Compound	affinity of PfCNB-C for the fluorescent nucleotide
Nc1ncnc2c1nc(SCCNC(=S)Nc1ccc(-c3c4ccc(=O)cc-4oc4cc(O)ccc34)c(C(=O)O)c1)n2C1OC2COP(=O)(O)OC2C1O (centres unmarked) [8-Fluo-cAMP]	very weak affinity
Nc1nc2c(nc(SCCNC(=S)Nc3ccc4c(c3)C(=O)OC43c4ccc(O)cc4Oc4cc(O)ccc43)n2[C@@H]2O[C@@H]3COP(=O)(O)O[C@H]3[C@H]2O)c(=O)[nH]1 [8-Fluo-cGMP]	very weak affinity
